Experimental data taken from US20240197828A1, “Chimeric molecule to treat sepsis and other inflammatory conditions” (THE FEINSTEIN INSTITUTES FOR MEDICAL RESEARCH, priority 2022, published 2024).
Residues, ends and D or L forms follow the SMILES beside them.

Target: T1, αvβ3-integrin (Mus musculus, UniProt O54890+P43406)
T1 construct: purchased R&D Systems 7889-AV-050
T1 sequence (P43406 31-988 limits assumed): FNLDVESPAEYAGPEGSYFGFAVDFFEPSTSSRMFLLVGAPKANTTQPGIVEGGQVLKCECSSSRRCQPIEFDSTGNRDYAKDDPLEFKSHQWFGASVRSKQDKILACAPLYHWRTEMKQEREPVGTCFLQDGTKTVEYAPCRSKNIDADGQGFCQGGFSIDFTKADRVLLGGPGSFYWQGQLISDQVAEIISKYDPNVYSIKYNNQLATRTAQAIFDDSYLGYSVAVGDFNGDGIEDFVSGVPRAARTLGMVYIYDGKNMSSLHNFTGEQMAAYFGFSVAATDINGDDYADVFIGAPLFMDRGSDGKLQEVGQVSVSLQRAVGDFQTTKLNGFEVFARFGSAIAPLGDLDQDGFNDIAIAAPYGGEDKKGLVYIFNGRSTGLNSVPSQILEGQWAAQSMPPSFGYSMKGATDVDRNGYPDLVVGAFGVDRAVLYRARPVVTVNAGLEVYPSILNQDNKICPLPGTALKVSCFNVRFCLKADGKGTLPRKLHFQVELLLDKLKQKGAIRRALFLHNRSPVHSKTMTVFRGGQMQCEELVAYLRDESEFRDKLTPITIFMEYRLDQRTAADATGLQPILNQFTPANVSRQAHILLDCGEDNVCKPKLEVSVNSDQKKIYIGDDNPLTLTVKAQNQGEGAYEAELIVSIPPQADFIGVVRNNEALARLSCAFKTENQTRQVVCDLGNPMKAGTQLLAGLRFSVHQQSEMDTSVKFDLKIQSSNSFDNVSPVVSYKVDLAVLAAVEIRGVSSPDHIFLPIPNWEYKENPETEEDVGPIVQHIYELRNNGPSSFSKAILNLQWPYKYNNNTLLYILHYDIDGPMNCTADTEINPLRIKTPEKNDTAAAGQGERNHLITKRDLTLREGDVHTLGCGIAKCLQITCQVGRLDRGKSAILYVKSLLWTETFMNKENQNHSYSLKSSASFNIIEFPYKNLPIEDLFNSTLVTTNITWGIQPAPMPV
T1 sequence (O54890 26-717 limits assumed): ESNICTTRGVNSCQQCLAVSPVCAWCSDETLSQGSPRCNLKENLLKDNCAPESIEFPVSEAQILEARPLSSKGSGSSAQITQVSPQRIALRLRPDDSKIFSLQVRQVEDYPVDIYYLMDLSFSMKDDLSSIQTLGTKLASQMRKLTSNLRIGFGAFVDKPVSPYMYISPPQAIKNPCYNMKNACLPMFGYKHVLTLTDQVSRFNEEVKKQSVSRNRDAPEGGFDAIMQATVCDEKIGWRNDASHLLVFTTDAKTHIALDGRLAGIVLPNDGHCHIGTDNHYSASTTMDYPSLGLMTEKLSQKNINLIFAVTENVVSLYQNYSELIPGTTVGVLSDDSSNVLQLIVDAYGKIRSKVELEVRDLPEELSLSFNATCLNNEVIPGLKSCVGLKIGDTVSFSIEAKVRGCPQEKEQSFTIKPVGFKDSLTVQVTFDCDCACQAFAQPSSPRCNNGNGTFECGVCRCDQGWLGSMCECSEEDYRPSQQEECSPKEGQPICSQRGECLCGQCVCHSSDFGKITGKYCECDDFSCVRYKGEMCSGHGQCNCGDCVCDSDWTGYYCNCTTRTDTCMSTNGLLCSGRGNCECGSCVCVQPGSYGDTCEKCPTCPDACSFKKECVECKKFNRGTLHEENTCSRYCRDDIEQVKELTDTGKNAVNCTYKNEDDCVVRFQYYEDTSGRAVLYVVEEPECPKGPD
Assay: Surface plasmon resonance binding to αvβ3-integrin
Conditions: Example 2, Biacore; integrin analyte 31.25 to 125 nM; read-out: KD, binding to αvβ3-integrin receptor
Source text: For Biacore experiments, recombinant murine (rm) CIRP was purchased from Cubasio Technology LLC (Cat #. CSB-EP613483He0), rmMFG-E8 was purchased from R&D Systems (Cat #2767-MF-050), and auß3-integrin was purchased from R&D Systems (Cat #7889-AV-050). For in vitro studies, recombinant human (rh)- and rmMFG-E8 and rmCIRP was produced by our lab as previously described (4). […] The known AA sequence of DD-2 (157 amino acids long) of murine MFG-E8 was split into ˜15 AA long sequences with a 5 AA long overlap. This portion of the peptide was designed to bind to eCIRP. The 15 AA sequences were then all tagged with three AA long, Arg-Gly-Asp (RGD), designed to bind to the integrin receptor. […] All peptides were screened in vitro for the ability to attenuate eCIRP-induced TNFα production. […]
To examine the direct interaction between rmCIRP and rmMFG-E8, surface plasmon resonance (SPR), OpenSPR (Nicoya), was performed between rmCIRP and rmMFG-E8. rmCIRP was immobilized on carboxyl sensor and rmMFG-E8 was injected as an analyte in concentrations of 15.7 nM to 250 nM. […] To evaluate binding, the analyte was injected into flow cell-1 and flow cell-2 and increasing concentrations and real-time interaction data were analyzed by TraceDrawer (Nicoya). […]

CC(C)C[C@H](NC(=O)[C@H](CC(N)=O)NC(=O)[C@H](Cc1c[nH]c2ccccc12)NC(=O)[C@@H](NC(=O)[C@H](CCCCN)NC(=O)[C@H](Cc1ccc(O)cc1)NC(=O)[C@H](CO)NC(=O)[C@H](CO)NC(=O)[C@H](CO)NC(=O)[C@H](CC(=O)O)NC(=O)CNC(=O)[C@@H](N)CCCNC(=N)N)[C@@H](C)O)C(=O)N[C@@H](CCCNC(=N)N)C(=O)N[C@@H](C)C(=O)N[C@@H](Cc1ccccc1)C(=O)NCC(=O)N[C@@H](Cc1c[nH]c2ccccc12)C(=O)N[C@@H](Cc1ccc(O)cc1)C(=O)O [MOP3, RGDSSSYKTWNLRAFGWY] (H-RGDSSSYKTWNLRAFGWY-OH; N-terminus and C-terminus assumed)
Kd: 776 nM
